Melting point data for 88 molecules are collected here from a melting point compilation (Tetko et al.; mined from patent text by program, amines drawn as free bases though some values may be those of a salt).

A value given as a limit tells only on which side of the number the result lay.

The term melting point denotes the temperature, or range, at which the solid turns liquid. Molecule `CCCCCCOc1ccc(C2OCC(C(=O)O)CO2)cc1` (stereo not drawn) displayed a melting point of 30 °C. `COc1ccc2cccc(C(O)CNC(C)=O)c2c1` (stereo not drawn) registered a melting point of 173 to 175 °C. For the molecule `CC(C)(C)C(=O)Oc1nc(-c2ccccc2)sc1-c1ccccc1`, the melting point is 134 to 136 °C. With `O=C(Nc1ccc2ccc(-c3ccc(Cl)cc3)nc2n1)c1cccc(Cl)c1` the figure was 222 to 224 °C. With `COc1cc(C=CC(=O)CCCCO)cc(OC)c1` the figure was 78 to 80 °C. `COc1cc(C(=O)Nc2ccc(S(=O)(=O)C(F)(F)F)cc2Cl)c(O)c(C(C)(C)C)c1` showed a melting point of 126 to 127 °C. In turn, `Cn1c(=O)oc2cc([N+](=O)[O-])ccc21` showed a melting point of 183 to 185 °C. In the case of `CCOC(=O)C1(Cl)Oc2c(cc(C(=O)c3ccccc3F)c(OC)c2C)C1Cl` (stereo not drawn), the melting point worked out at 102 °C. For the molecule `COC(=O)COc1ccc(SCc2cc(-c3ccc(C(F)(F)F)cc3)on2)c2c1CCCO2`, the melting point is 112 to 113 °C. `Cc1nc(-c2cccc(C(=O)c3ccccc3)c2)sc1C(=O)O`: the melting point lay within 213 to 215 °C.

Molecule `CCOc1nc(C(=O)O)c2c(n1)nc(OCC)n2Cc1ccc(-c2ccccc2-c2nnn[nH]2)cc1` registered a melting point of 140 to 141 °C. In the case of `CN1CC(=O)Nc2cccnc2C1=O`, the melting point is 272 to 274 °C. Turning to `Cc1ccccc1-c1nc(-c2ccccc2C)nc(-c2ccccc2C)n1`, the melting point was 110 °C. In turn, `COC(=O)CCCc1cc2nc(Cl)ccc2n1S(=O)(=O)c1cccnc1` had a melting point of 119 °C. Take `CC(CC(=O)O)CC(=O)CCCCCCCCCCC(=O)O` (stereo not drawn): the melting point fell in the range of 84 to 85 °C. As for `CC(C)(SSc1ccccc1C(=O)Nc1ccc(S(N)(=O)=O)cc1)C(N)C(=O)O` (stereo not drawn), the melting point lay within 115 to 118 °C. `C[C@H]1CCCC(C)(C)[C@@H]1C(=O)c1c(F)c(F)c(F)c(F)c1F` showed a melting point of 35.2 to 38 °C. `O=C(CCCC(=O)C(F)(F)F)c1cccc(OCc2ccccc2)c1` showed a melting point of 75.3 to 80.3 °C. On to `CCCCCCCCCCCCCC(=O)O[C@H](CCCCCCCCCCC)CC(=O)NC(=O)[C@@H](N)CO`, for which the melting point was in the range of 126 to 130 °C. With `O=C(Nc1nc(NC(=O)c2cccnc2)nc(NC(=O)c2cccnc2)n1)c1cccnc1` the figure was 276 to 278 °C. As to `CCOC(=O)C1=C(C)NC(CSCCC#N)=C(C(=O)OCC)C1c1cccc([N+](=O)[O-])c1` (stereo not drawn), the melting point lay in the range of 102 to 104 °C. With `CCOC(=O)C(C)(C)c1ccc(CCNC(=O)c2ccc(Cl)cc2)cc1` the figure was 108 to 109 °C; with `O=S(=O)(c1ccc(OCCO)cc1)C(Br)(Br)Br`, 157 to 162 °C; with `Cc1cc(COC2=NS(=O)(=O)c3ccccc32)sn1`, 202 to 204 °C.

For the molecule `COc1ccc(C=C[N+](=O)[O-])c(Cl)c1OC`, the melting point is 88 to 91 °C. In turn, `CC1=NC(NC(=O)Nc2cccc(C)c2)C(=O)N(CC(=O)N2CCC(C(N)=O)CC2)c2c(C)cccc21` (stereo not drawn) gave a melting point of 197 to 198 °C.

`Oc1cc(Nc2nnc(Cc3ccncc3)c3ccccc23)ccc1Cl` had a melting point of 245 to 246 °C. The molecule `Cc1ccc(-c2ccc3c(c2)C=C(C(=O)Nc2ccc(CS(=O)c4ccccc4)cc2)CCO3)cc1` (stereo not drawn) registered a melting point of 127 to 128 °C.

With `Oc1ccc(-c2cccc3sc4ccccc4c23)cc1`, the melting point fell in the range of 117 to 119 °C. For the molecule `Cc1ccc(C#N)c2c([N+](=O)[O-])ccc(Cl)c12`, the melting point lay in the range of 179 to 180 °C. `CN(C)C1CCCN(C(=O)c2ccc(N)cc2)c2ccccc21` (stereo not drawn): the melting point is 120 to 122 °C. As to `COc1ccc(NC(C)=C2C(=O)OC(=O)C(C(C)=O)=C2O)cc1`, the melting point is 212 to 214 °C. The molecule `CNc1nc(SC)ncc1C#N` returned a melting point of 189 to 190 °C.

In turn, `OC(CNc1c(Br)cnc2ccccc12)c1ccccc1` (stereo not drawn) displayed a melting point of 131 to 132 °C. Take `CC(=O)c1ccc(-c2ccc(C(=O)NCCCCN3CCC(c4ccc5c(c4O)CCCC5)CC3)cc2)cc1`: the melting point lay within 180 to 185 °C.

Molecule `COc1ccnc(CCc2nc3cc(-c4ccc(S(N)(=O)=O)cc4)cnc3[nH]2)c1` yielded a melting point of 216 to 218 °C. With `CON1CCC2(CC1)OC(=O)C(c1cc(C)c(C)cc1C)=C2O`, the melting point fell in the range of 199 to 204 °C. Molecule `N#Cc1ccc(CCc2cc(Cl)ccc2OCc2ccccc2)cc1` registered a melting point of 77 to 79 °C. With `CCCC1CC2=CC(=O)CCC2C2CCC3(C)C(OC(C)=O)CCC3C12` (stereo not drawn) the figure was 97 to 100 °C; with `O=C(Nc1ccc(-n2ccnn2)c(F)c1)OCc1ccccc1`, 121 to 122 °C; with `CC(=O)CN1CCc2c(c(=O)oc3cc4c(cc23)OCO4)C1`, 167 to 170 °C.

Turning to `CCOC(=O)C1=C(OCC)C(OCC)=NS1(=O)=O`, the melting point was 129 to 133 °C. Consider `CC(C)c1ccccc1SC1=C(O)CC(CCc2ccccc2)(c2ccccc2)OC1=O` (stereo not drawn), for which the melting point fell in the range of 66 to 67 °C. With `O=C(NC1CCN(CCCc2ccc(F)cc2)CC1)C1=Cc2cnc3cccc(n23)S1` the figure was 117 to 119 °C.

In the case of `CCOc1nc(OCC)c2cscc2n1`, the melting point was in the range of 84 to 86 °C. For the molecule `CCOc1cn(C)c2nc3cc(F)c(F)cc3cc2c1=O`, the melting point was greater than 270 °C. Turning to `CN(C)C(=S)n1cnc(S(=O)(=O)CC2CCCC2)n1`, the melting point turned out to be 65 °C. As for `CCn1ncc2c(NCC3CCCCC3)c3cc(OCC(O)CO)ccc3nc21` (stereo not drawn), the melting point is 197 to 199 °C. As to `CC(=O)Nc1ccc(Cl)cc1S(=O)(=O)CC#N`, the melting point amounted to 174 °C. In turn, `Fc1ccc2c(c1)C(OCC1CC1)(C(F)F)c1cc(Cl)cnc1N2` (stereo not drawn) had a melting point of 169 to 170 °C. The molecule `Nc1cc(-c2ccc([N+](=O)[O-])c(N)c2)ccc1[N+](=O)[O-]` had a melting point of 226 °C.

For `CC(=O)c1cc(F)cc(C#N)c1F`, the melting point fell in the range of 80 to 83 °C. `Cn1ncnc1COc1nn2c(-c3ccccc3F)nncc2c1-c1ccco1` returned a melting point of 188 to 190 °C. With `COc1cc2c(cc1Cl)C(O)(c1ccccc1Cl)C(=O)N2` (stereo not drawn) the figure was 237 to 240 °C; with `CCCCCCCCCCCCCCOc1ccc(CC(=O)Nc2cccc(C(=O)OCC)c2)cc1`, 91 to 94 °C. Take `CCOC1=NS(=O)(=O)c2cc(NC(=O)CC)ccc21`: the melting point is 188 to 192 °C. With `CCCCCCc1c(C(=O)O)sc2ccsc12` the figure was 111 to 112 °C. With `CC(C#CC1CCCC1)N(O)C(N)=O` (stereo not drawn) the figure was 140 to 141 °C; with `CC(=O)Oc1c(C)c(C)c2c(c1C)CCC(C)(C(=O)N1CCN(c3cc(N4CCCC4)nc(N4CCCC4)n3)CC1)O2` (stereo not drawn), 191 to 192 °C; with `O=S(=O)(O)c1ncnn1CC(O)(Cc1ccccc1Cl)C1(Cl)CC1` (stereo not drawn), 68 to 70 °C.

Consider `O=S(=O)(c1ccccc1)N1CCC(C(Nc2ccc(F)cc2)c2ccc(F)cc2)CC1` (stereo not drawn), for which the melting point fell in the range of 175 to 176 °C.

For the molecule `CCCCS(=O)(=O)NCC1CCN(C(=O)OCc2ccccc2)CC1`, the melting point was in the range of 83 to 85 °C. With `CCc1cc(=O)c2cc(CCO)ccc2o1` the figure was 75 to 76 °C. `Cc1cc(C)nc(NC(=O)Cc2ccc(Br)s2)c1` came in with a melting point of 87 °C. With `CCCCC1(CCCC)CS(=O)(=O)c2ccc(N(C)C)cc2[C@@H](c2ccc(OCc3cccc(CN(CC(=O)O)CC(=O)O)n3)cc2)[C@H]1O` the figure was 153 to 155 °C. With `O=C(Cl)c1cc([N+](=O)[O-])cc2c1OCCO2` the figure was 108 °C. The molecule `Cc1nc2c(Cl)nccc2n1C` had a melting point of 197 to 198 °C. In turn, `Cc1ccc(OCc2ccccc2)cc1NCc1ccccc1` showed a melting point of 66 to 67 °C.

Take `CC(C)CC(NC(c1ccc(-c2ccc(S(C)(=O)=O)cc2)cc1)C(F)(F)F)C(=O)NC(C#N)CC(=O)OCc1ccccc1` (stereo not drawn): the melting point came out at 111 °C. With `COC1C=CC2C3Cc4ccc(O)c5c4C2(CCN3C)C1O5` (stereo not drawn) the figure was 242 to 243 °C; with `CC#CCOc1ccc(S(=O)C(C(=O)NO)c2cccc3ccccc23)cc1` (stereo not drawn), 159 °C. With `CONC(=O)c1ccc(-c2ccc3nnn(Cc4ccc5ncccc5c4)c3n2)cc1F` the figure was 197 to 199 °C; with `Nc1ccc(Oc2c(N3CCCC3)cc(C(=O)O)cc2S(N)(=O)=O)cc1`, 234 to 240 °C. With `N#Cc1ccc(Sc2ccc3cc(Br)ccc3c2)cc1C(F)(F)F`, the melting point was in the range of 114 to 116 °C. The molecule `CC1(C)CCCC(C)(C)N1CCOC(=O)C(Cc1ccccc1)(Cc1ccccc1)C(=O)OCCN1C(C)(C)CCCC1(C)C` displayed a melting point of 77 to 78 °C. Consider `CC(Oc1c(C(=O)O)cc(Cl)cc1[N+](=O)[O-])C(=O)O` (stereo not drawn), for which the melting point was found to be 190 °C.

On to `O=S1CCN(c2nc(N3CCNCC3)cc3c(F)cccc23)CC1`, for which the melting point lay in the range of 213 to 215 °C. The molecule `COc1cccc2c(Nc3ccccc3C)c(C(=O)C3CCCCC3)cnc12` returned a melting point of 115 to 117 °C. With `CN1CCN(c2ccc(NC=C3C(=O)NC(=O)c4ccc(OCCN5CCOCC5)cc43)cc2)CC1` the figure was 142 to 143 °C; with `O=S(=O)(Nc1ccc(Oc2cccc3cccnc23)c(Cl)c1)c1cccc(C(F)(F)F)c1`, greater than 245 °C; with `CCOC(=O)COc1cccc(-n2nc(-c3ccc(F)cc3)c3cccnc32)c1`, 130 to 131 °C.

In turn, `CCOC(=O)c1cn(C2CC2)c2nc(N3CCN(C(=O)OCC)CC3)c(F)cc2c1=O` showed a melting point of 184 to 186 °C. Molecule `Cc1ccc(S(=O)(=O)NCCC(C(=O)OC(C)(C)C)C2(CC(C)C)CCN(CCc3ccccc3)C2=O)cc1` (stereo not drawn) came in with a melting point of 136 to 138 °C. With `Cc1cccc(C)c1N(CC(C)N1C(=O)c2ccccc2C1=O)S(C)(=O)=O` (stereo not drawn) the figure was 124 to 127 °C. Turning to `O=C(c1cccc(O)c1)c1nn(C2CCCC2)c2c(C(F)(F)F)cccc12`, the melting point is 152 °C. With `NC(=O)c1cc2c(cc1OCC1CCCCC1)OCCC[C@H]2O` the figure was 164 to 165 °C. Molecule `O=C(OC#CCc1ccccc1)C1CN=CNC1` (stereo not drawn) displayed a melting point of 117 to 118 °C.

Consider `CCCC1COC(Cn2cncn2)(c2ccc(Oc3ccccc3)cc2)O1` (stereo not drawn), for which the melting point is 68.5 to 71 °C.
